Measurements from PubChem BioAssay AID1259407 (Chemical Carcinogenesis Research Information System (CCRIS), 2018).
Calls of active or inactive are those of the source. How the calls were made is not given here.

Test system: CCRIS mutagenicity, Ames/micronucleus/aberration tests
Assay: CCRIS mutagenicity studies
[1] = Test System: AMES SALMONELLA TYPHIMURIUM, Strain/Indicator: TA98, Metabolic Activation: NONE, Method: PREINCUBATION
[2] = Test System: AMES SALMONELLA TYPHIMURIUM, Strain/Indicator: TA100, Metabolic Activation: NONE, Method: PREINCUBATION
[3] = Test System: AMES SALMONELLA TYPHIMURIUM, Strain/Indicator: TA1535, Metabolic Activation: NONE, Method: PREINCUBATION
[4] = Test System: AMES SALMONELLA TYPHIMURIUM, Strain/Indicator: TA98, Metabolic Activation: NONE, Method: STANDARD PLATE
[5] = Test System: AMES SALMONELLA TYPHIMURIUM, Strain/Indicator: TA98, Metabolic Activation: RAT, LIVER, S-9, AROCLOR 1254, Method: STANDARD PLATE
[6] = Test System: AMES SALMONELLA TYPHIMURIUM, Strain/Indicator: TA100, Metabolic Activation: NONE, Method: STANDARD PLATE
[7] = Test System: AMES SALMONELLA TYPHIMURIUM, Strain/Indicator: TA100, Metabolic Activation: RAT, LIVER, S-9, AROCLOR 1254, Method: STANDARD PLATE

SMILES: CC#N
- mutagenic call (End Point: IN VITRO CHROMOSOMAL ABERRATIONS, Test System: CHINESE HAMSTER OVARY CELLS, Metabolic Activation: NONE): inactive; negative
- mutagenic call (End Point: IN VITRO CHROMOSOMAL ABERRATIONS, Test System: CHINESE HAMSTER OVARY CELLS, Metabolic Activation: RAT, LIVER, S-9, AROCLOR 1254): active; positive; statistically significant increase, but not dose-related
- mutagenic call (Test System: AMES SALMONELLA TYPHIMURIUM, Strain/Indicator: TA98, Metabolic Activation: HAMSTER, LIVER, S-9, AROCLOR 1254 (10 OR 30%), Method: PREINCUBATION): inactive; negative
- mutagenic call [1]: inactive; negative
- mutagenic call (Test System: AMES SALMONELLA TYPHIMURIUM, Strain/Indicator: TA98, Metabolic Activation: RAT, LIVER, S-9, ACETONITRILE (AUTOINDUCTION), Method: PREINCUBATION): inactive; negative
- mutagenic call (Test System: AMES SALMONELLA TYPHIMURIUM, Strain/Indicator: TA98, Metabolic Activation: RAT, LIVER, S-9, AROCLOR 1254 (10 OR 30%), Method: PREINCUBATION): inactive; negative
- mutagenic call (Test System: AMES SALMONELLA TYPHIMURIUM, Strain/Indicator: TA98, Metabolic Activation: RAT, LIVER, S-9, PHENOBARBITONE, Method: PREINCUBATION): inactive; negative
- mutagenic call (Test System: AMES SALMONELLA TYPHIMURIUM, Strain/Indicator: TA100, Metabolic Activation: HAMSTER, LIVER, S-9, AROCLOR 1254 (10 OR 30%), Method: PREINCUBATION): inactive; negative
- mutagenic call [2]: inactive; negative
- mutagenic call (Test System: AMES SALMONELLA TYPHIMURIUM, Strain/Indicator: TA100, Metabolic Activation: RAT, LIVER, S-9, ACETONITRILE (AUTOINDUCTION), Method: PREINCUBATION): inactive; negative
- mutagenic call (Test System: AMES SALMONELLA TYPHIMURIUM, Strain/Indicator: TA100, Metabolic Activation: RAT, LIVER, S-9, AROCLOR 1254 (10 OR 30%), Method: PREINCUBATION): inactive; negative
- mutagenic call (Test System: AMES SALMONELLA TYPHIMURIUM, Strain/Indicator: TA100, Metabolic Activation: RAT, LIVER, S-9, PHENOBARBITONE, Method: PREINCUBATION): inactive; negative
- mutagenic call (Test System: AMES SALMONELLA TYPHIMURIUM, Strain/Indicator: TA1535, Metabolic Activation: HAMSTER, LIVER, S-9, AROCLOR 1254 (10 OR 30%), Method: PREINCUBATION): inactive; negative
- mutagenic call [3]: inactive; negative
- mutagenic call (Test System: AMES SALMONELLA TYPHIMURIUM, Strain/Indicator: TA1535, Metabolic Activation: RAT, LIVER, S-9, AROCLOR 1254 (10 OR 30%), Method: PREINCUBATION): inactive; negative
- mutagenic call (Test System: AMES SALMONELLA TYPHIMURIUM, Strain/Indicator: TA1537, Metabolic Activation: HAMSTER, S-9, AROCLOR 1254 (10 OR 30%), Method: PREINCUBATION): inactive; negative
- mutagenic call (Test System: AMES SALMONELLA TYPHIMURIUM, Strain/Indicator: TA1537, Metabolic Activation: NONE, Method: PREINCUBATION): inactive; negative
- mutagenic call (Test System: AMES SALMONELLA TYPHIMURIUM, Strain/Indicator: TA1537, Metabolic Activation: RAT, LIVER, S-9, AROCLOR 1254 (10 OR 30%), Method: PREINCUBATION): inactive; negative

SMILES: OCCBr
- mutagenic call (Test System: AMES SALMONELLA TYPHIMURIUM, Strain/Indicator: TA97, Metabolic Activation: HAMSTER, LIVER, S-9, AROCLOR 1254 (10%), Method: PREINCUBATION): inactive; negative
- mutagenic call (Test System: AMES SALMONELLA TYPHIMURIUM, Strain/Indicator: TA97, Metabolic Activation: NONE, Method: PREINCUBATION): inactive; negative
- mutagenic call (Test System: AMES SALMONELLA TYPHIMURIUM, Strain/Indicator: TA97, Metabolic Activation: RAT, LIVER, S-9, AROCLOR 1254 (10%), Method: PREINCUBATION): inactive; negative
- mutagenic call (Test System: AMES SALMONELLA TYPHIMURIUM, Strain/Indicator: TA98, Metabolic Activation: HAMSTER, LIVER, S-9, AROCLOR 1254 (10%), Method: PREINCUBATION): inactive; negative
- mutagenic call [1]: inactive; negative
- mutagenic call [4]: inactive; negative
- mutagenic call (Test System: AMES SALMONELLA TYPHIMURIUM, Strain/Indicator: TA98, Metabolic Activation: RAT, LIVER, S-9, AROCLOR 1254 (10%), Method: PREINCUBATION): inactive; negative
- mutagenic call [5]: inactive; negative
- mutagenic call (Test System: AMES SALMONELLA TYPHIMURIUM, Strain/Indicator: TA100, Metabolic Activation: HAMSTER, LIVER, S-9, AROCLOR 1254 (10%), Method: PREINCUBATION): active; positive
- mutagenic call [2]: active; positive
- mutagenic call [6]: active; positive
- mutagenic call (Test System: AMES SALMONELLA TYPHIMURIUM, Strain/Indicator: TA100, Metabolic Activation: RAT, LIVER, S-9, AROCLOR 1254 (10%), Method: PREINCUBATION): active; positive
- mutagenic call [7]: active; positive
- mutagenic call (Test System: AMES SALMONELLA TYPHIMURIUM, Strain/Indicator: TA1535, Metabolic Activation: HAMSTER, LIVER, S-9, AROCLOR 1254 (10%), Method: PREINCUBATION): active; positive
- mutagenic call [3]: active; positive
- mutagenic call (Test System: AMES SALMONELLA TYPHIMURIUM, Strain/Indicator: TA1535, Metabolic Activation: RAT, LIVER, S-9, AROCLOR 1254 (10%), Method: PREINCUBATION): active; positive

SMILES: COc1ccc(-c2oc3ccccc3c(=O)c2N)cc1N
- mutagenic call (Test System: AMES SALMONELLA TYPHIMURIUM, Strain/Indicator: TA100, Metabolic Activation: RAT LIVER S-9, AROCLOR 1254, Method: STANDARD PLATE): active; positive
- mutagenic call (Test System: AMES SALMONELLA TYPHIMURIUM, Strain/Indicator: YG1042, Metabolic Activation: RAT LIVER S-9, AROCLOR 1254, Method: STANDARD PLATE): active; positive

SMILES: CN1CCN=C(c2ccccc2)c2cc(Cl)ccc21
- mutagenic call [4]: inactive; negative
- mutagenic call [5]: inactive; negative
- mutagenic call [6]: inactive; negative
- mutagenic call [7]: inactive; negative
- mutagenic call (Test System: AMES SALMONELLA TYPHIMURIUM, Strain/Indicator: TA1535, Metabolic Activation: NONE, Method: STANDARD PLATE): inactive; negative
- mutagenic call (Test System: AMES SALMONELLA TYPHIMURIUM, Strain/Indicator: TA1535, Metabolic Activation: RAT, LIVER, S-9, AROCLOR 1254, Method: STANDARD PLATE): inactive; negative
- mutagenic call (Test System: AMES SALMONELLA TYPHIMURIUM, Strain/Indicator: TA1537, Metabolic Activation: NONE, Method: STANDARD PLATE): inactive; negative
- mutagenic call (Test System: AMES SALMONELLA TYPHIMURIUM, Strain/Indicator: TA1537, Metabolic Activation: RAT, LIVER, S-9, AROCLOR 1254, Method: STANDARD PLATE): inactive; negative

SMILES: Cc1c2ccccc2c(C)c2c1c1c(c3ccccc32)N1
- mutagenic call [1]: active; positive

SMILES: CC(=O)Nc1ccc2c(c1OC(=O)c1ccccc1)Cc1ccccc1-2
- mutagenic call [5]: inactive; negative

SMILES: OC[C@H](Cc1cccc(O)c1)[C@H](CO)Cc1cccc(O)c1
- mutagenic call (Test System: CHINESE HAMSTER V79 CELLS, Strain/Indicator: V79 CELLS (HPRT)/6-THIOGUANINE, Metabolic Activation: NONE, Method: SUSPENSION/PLATE): inactive; negative
- mutagenic call (Test System: CHINESE HAMSTER V-79, Strain/Indicator: V-79 (HPRT)/6-THIOGUANINE, Metabolic Activation: NONE): inactive; negative

SMILES: NC(=O)N(CCCCO)N=O
- mutagenic call (Test System: E. COLI B, Strain/Indicator: H/R30R, Metabolic Activation: NONE): active; positive
- mutagenic call (Test System: E. COLI B, Strain/Indicator: HS30R, Metabolic Activation: NONE): active; positive

SMILES: CCC(C)c1ccc(/C=C/c2ccc(N)cc2)cc1 (stereo not drawn)
- mutagenic call [4]: inactive; negative
- mutagenic call (Test System: AMES SALMONELLA TYPHIMURIUM, Strain/Indicator: TA98, Metabolic Activation: RAT, LIVER, S-9, AROCLOR, Method: STANDARD PLATE): active; positive
- mutagenic call [6]: inactive; negative
- mutagenic call (Test System: AMES SALMONELLA TYPHIMURIUM, Strain/Indicator: TA100, Metabolic Activation: RAT, LIVER, S-9, AROCLOR, Method: STANDARD PLATE): active; positive

SMILES: Nc1ccc(Oc2cccc(Oc3ccc(N)cc3)c2)cc1
- mutagenic call [1]: inactive; negative
- mutagenic call (Test System: AMES SALMONELLA TYPHIMURIUM, Strain/Indicator: TA98, Metabolic Activation: RAT, LIVER, S-9, PCB, Method: PREINCUBATION): active; positive
- mutagenic call [2]: inactive; negative
- mutagenic call (Test System: AMES SALMONELLA TYPHIMURIUM, Strain/Indicator: TA100, Metabolic Activation: RAT, LIVER, S-9, PCB, Method: PREINCUBATION): active; positive
